Patent US12600728B2, “Interleukin-17 inhibitors” (priority 2020, dated 2026)
Like-named read-outs stand apart in the source and are kept apart here.

What was measured:
[1] = target: biotinylated human IL-17A / AF647-labeled human IL-17RA (Homo sapiens, UniProt Q16552); test: Human IL-17A×IL-17RA TR-FRET assay; assay type: binding
Outline: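 Compounds tested in duplicate at each concentration; neutral controls contain all components with DMSO in place of compound.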

[2] = target: recombinant human IL-17AA (Homo sapiens, UniProt Q16552); test: IL-6 release from NHDF cells, IL-17AA plus TNF-α stimulation; assay type: cell-based; details: 24 hours, IL-6 by ELISA
Chain of recombinant human IL-17AA (Q16552 24-155): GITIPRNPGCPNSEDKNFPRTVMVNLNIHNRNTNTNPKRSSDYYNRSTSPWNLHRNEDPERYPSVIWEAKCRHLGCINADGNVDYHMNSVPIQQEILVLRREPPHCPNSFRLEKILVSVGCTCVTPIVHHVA
Outline: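 IL-17-specific IL-6 release from NHDF cells adhered overnight; compounds pre-incubated 30 min at room temperature with human IL-17AA plus TNF-α, then 24 h on cells at 37° C. Final DMSO 0.1% or plasma 20%; IL-6 by ELISA (450 nm). TNF-α-only IL-6 subtracted before IC50 fit.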

[3] = TR-FRET, biotinylated human IL-17A 5 nM, AF647-labeled human IL-17RA 30 nM, read-out: IL17AA FRET/ IL17Rawt IC50
[4] = NHDF cells, IL-17AA 30 pM plus TNF-α 6 pM, read-out: IL17AA + TNF IC50 IL-6
[5] = TR-FRET, 5 nM IL-17A, 30 nM IL-17RA, read-out: IL17AA FRET/ IL17Rawt IC50
[6] = NHDF cells, IL-17AA 30 pM + TNF-α 6 pM, read-out: IL17AA + TNF IC50 IL-6

Chain of biotinylated human IL-17A / AF647-labeled human IL-17RA (Q16552 24-155): as above

**Q.** For `Cc1cc[n+]([O-])c(C)c1-c1ccc(NC(=O)[C@@H](NC(=O)c2conc2C)C2CCCC2)cc1` [Example 37, (S)-3-(4-(2-cyclopentyl-2-(3-methylisoxazole-4-carboxamido)acetamido)phenyl)-2,4-dimethylpyridine 1-oxide], which IC50 [1, 3] is on record?
**A.** 396 nM

**Q.** What about the IC50 [2, 4] of the same molecule?
**A.** 60 nM

**Q.** `Cc1c(-c2ccc(NC(=O)[C@@H](NC(=O)c3ccc4n3CCN(C)C4)C3CCCCC3)cc2F)c(Cl)cc[n+]1[O-]` [Example 124, 4-chloro-3-(4-((S)-2-cyclohexyl-2-(2-methyl-1,2,3,4-tetrahydropyrrolo[1,2-a]pyrazine-6-carboxamido)acetamido)-2-fluorophenyl)-2-methylpyridine 1-oxide] was tested. Which IC50 [1, 3] did it give?
**A.** 172 nM

**Q.** And the IC50 [2, 4]?
**A.** 8 nM

**Q.** For `CCc1nocc1C(=O)N[C@H](C(=O)Nc1ccc(-c2c(C)cc[n+]([O-])c2C)cc1)C1CCC(F)(F)C1` (mixture of isomers) [Example 86, 3-(4-((2S)-2-(3,3-difluorocyclopentyl)-2-(3-ethylisoxazole-4-carboxamido)acetamido)phenyl)-2,4-dimethylpyridine 1-oxide], which IC50 [1, 3] is on record?
**A.** 119 nM

**Q.** And the IC50 [2, 4]?
**A.** 232 nM

**Q.** For `Cc1cc[n+]([O-])c(C)c1-c1ccc(NC(=O)[C@@H](NC(=O)c2ccc3n2CCN(C)C3)C2CC=C(F)CC2)cc1` (stereo partly drawn) [Example 128, 3-(4-((2S)-2-(4-fluorocyclohex-3-en-1-yl)-2-(2-methyl-1,2,3,4-tetrahydropyrrolo[1,2-a]pyrazine-6-carboxamido)acetamido)phenyl)-2,4-dimethylpyridine 1-oxide], which IC50 [1, 3] is on record?
**A.** 299 nM

**Q.** What about the IC50 [2, 4] of the same molecule?
**A.** 54 nM

**Q.** `Cc1cc[n+]([O-])c(C)c1-c1ccc(NC(=O)[C@@H](NC(=O)c2ccc3n2CCN(C)C3)C2CCCCCC2)nc1` [Example 149, (S)-6′-(2-cycloheptyl-2-(2-methyl-1,2,3,4-tetrahydropyrrolo[1,2-a]pyrazine-6-carboxamido)acetamido)-2,4-dimethyl-[3,3′-bipyridine] 1-oxide] was tested. Which IC50 [1, 5] did it give?
**A.** 118 nM

**Q.** And the IC50 [2, 6]?
**A.** 59 nM

**Q.** With `Cc1c(-c2ccc(NC(=O)[C@@H](NC(=O)c3ccnn3C)C3CCCCC3)nc2)c(Cl)cc[n+]1[O-]` [Example 60, (S)-4-chloro-6′-(2-cyclohexyl-2-(1-methyl-1H-pyrazole-5-carboxamido)acetamido)-2-methyl-[3,3′-bipyridine] 1-oxide] as the molecule, how does the IC50 [1, 3] read?
**A.** 123 nM

**Q.** And the IC50 [2, 4]?
**A.** 236 nM

**Q.** How did the IC50 [1, 5] turn out when `Cc1cc[n+]([O-])c(C)c1-c1ccc(NC(=O)C(NC(=O)c2conc2C)C(C)c2ccccc2Cl)cc1` (centres unmarked) [Example 221, 3-(4-(3-(2-chlorophenyl)-2-(3-methylisoxazole-4-carboxamido)butanamido)phenyl)-2,4-dimethylpyridine 1-oxide] was run?
**A.** 71.9 nM

**Q.** And the IC50 [2, 6]?
**A.** 264 nM

**Q.** Which results are given for `Cc1cc[n+]([O-])c(C)c1-c1ccc(NC(=O)[C@@H](NC(=O)c2ccnn2C)C2CCC(F)(F)CC2)cc1` [Example 32, (S)-3-(4-(2-(4,4-difluorocyclohexyl)-2-(1-methyl-1H-pyrazole-5-carboxamido)acetamido)phenyl)-2,4-dimethylpyridine 1-oxide]?
**A.** IC50 [1, 3]: 286 nM; IC50 [2, 4]: 50 nM

**Q.** For `Cc1c(-c2ccc(NC(=O)[C@@H](NC(=O)c3ccc4n3CCN(C)C4)C3CCC(F)(F)CC3)cc2)c(Cl)cc[n+]1[O-]` [Example 123, (S)-4-chloro-3-(4-(2-(4,4-difluorocyclohexyl)-2-(2-methyl-1,2,3,4-tetrahydropyrrolo[1,2-a]pyrazine-6-carboxamido)acetamido)phenyl)-2-methylpyridine 1-oxide], which IC50 [1, 3] is on record?
**A.** 150 nM

**Q.** And the IC50 [2, 4]?
**A.** 59 nM

**Q.** What does the source list for `Cn1nccc1C(=O)N[C@H](C(=O)Nc1ccc(-c2c[n+]([O-])ccc2Cl)c(F)c1)C1CCCCC1` [Example 93, (S)-4-chloro-3-(4-(2-cyclohexyl-2-(1-methyl-1H-pyrazole-5-carboxamido)acetamido)-2-fluorophenyl)pyridine 1-oxide]?
**A.** IC50 [1, 3]: 601 nM; IC50 [2, 4]: 58 nM

**Q.** For `Cc1cc[n+]([O-])c(C)c1-c1ccc(NC(=O)[C@@H](NC(=O)c2ccc3n2CCN(C)C3)C(C)c2ccccc2Cl)cc1` (stereo partly drawn) [Example 213, 3-(4-((2S)-3-(2-chlorophenyl)-2-(2-methyl-1,2,3,4-tetrahydropyrrolo[1,2-a]pyrazine-6-carboxamido)butanamido)phenyl)-2,4-dimethylpyridine 1-oxide], which IC50 [1, 5] is on record?
**A.** 533 nM

**Q.** And the IC50 [2, 6]?
**A.** 2580 nM

**Q.** With `Cc1c(-c2ccc(NC(=O)[C@@H](NC(=O)c3ccnn3C)[C@H]3CCCC(F)(F)C3)cc2)c(C(F)(F)F)cc[n+]1[O-]` [Example 183, 3-(4-((S)-2-((S)-3,3-difluorocyclohexyl)-2-(1-methyl-1H-pyrazole-5-carboxamido)acetamido)phenyl)-2-methyl-4-(trifluoromethyl)pyridine 1-oxide] as the molecule, how does the IC50 [1, 5] read?
**A.** 54.1 nM

**Q.** And the IC50 [2, 6]?
**A.** 42 nM

**Q.** For `Cc1cc[n+]([O-])c(C)c1-c1ccc(NC(=O)[C@@H](NC(=O)c2ccc3n2CCN(C)C3)C2CCCCC2)cc1` [Example 127, (S)-3-(4-(2-cyclohexyl-2-(2-methyl-1,2,3,4-tetrahydropyrrolo[1,2-a]pyrazine-6-carboxamido)acetamido)phenyl)-2,4-dimethylpyridine 1-oxide], which IC50 [1, 3] is on record?
**A.** 236 nM

**Q.** What about the IC50 [2, 4] of the same molecule?
**A.** 12 nM

**Q.** With `Cc1c(-c2ccc(NC(=O)C(NC(=O)c3ccnn3C)C3CC4CC4C3)cc2)c(Cl)cc[n+]1[O-]` (centres unmarked) [Example 218, 3-(4-(2-(bicyclo[3.1.0]hexan-3-yl)-2-(1-methyl-1H-pyrazole-5-carboxamido)acetamido)phenyl)-4-chloro-2-methylpyridine 1-oxide] as the molecule, how does the IC50 [1, 5] read?
**A.** 67.5 nM

**Q.** And the IC50 [2, 6]?
**A.** 19.5 nM

**Q.** Which IC50 [1, 5] does the source give for `CCn1nccc1C(=O)NC(C(=O)Nc1ccc(-c2c(Cl)cc[n+]([O-])c2C)cc1)C1CC2CC2C1` (single isomer, unassigned) [Example 209] here?
**A.** 381 nM

**Q.** And the IC50 [2, 6]?
**A.** 175 nM

**Q.** With `Cc1nocc1C(=O)NC(C(=O)Nc1ccc(-c2c(Cl)cc[n+]([O-])c2C)cc1)C1CC2CC2C1` (single isomer, unassigned) [Example 181] as the molecule, how does the IC50 [1, 5] read?
**A.** 54.8 nM

**Q.** What about the IC50 [2, 6] of the same molecule?
**A.** 64 nM

**Q.** Which IC50 [1, 3] does the source give for `COCc1nocc1C(=O)N[C@H](C(=O)Nc1ccc(-c2c(Cl)cc[n+]([O-])c2C)c(F)c1)C1CCCCC1` [Example 90, 4-chloro-3-(4-((S)-2-cyclohexyl-2-(3-(methoxymethyl)isoxazole-4-carboxamido)acetamido)-2-fluorophenyl)-2-methylpyridine 1-oxide] here?
**A.** 65 nM

**Q.** What about the IC50 [2, 4] of the same molecule?
**A.** 5 nM

**Q.** How did the IC50 [1, 3] turn out when `Cc1cc[n+]([O-])c(C)c1-c1ccc(NC(=O)[C@H](Cc2ccccc2Cl)NC(=O)c2ccc3n2CCN(C)C3)cc1` [Example 130, (S)-3-(4-(3-(2-chlorophenyl)-2-(2-methyl-1,2,3,4-tetrahydropyrrolo[1,2-a]pyrazine-6-carboxamido)propanamido)phenyl)-2,4-dimethylpyridine 1-oxide] was run?
**A.** 124 nM

**Q.** What about the IC50 [2, 4] of the same molecule?
**A.** 956 nM

**Q.** What does the source list for `CCc1nocc1C(=O)NC(C(=O)Nc1ccc(-c2c(Cl)cc[n+]([O-])c2C)cc1)C1CCC(C(F)(F)F)CC1` [Example 4, 4-chloro-3-(4-((S)-2-(3-ethylisoxazole-4-carboxamido)-2-((1r,4S)-4-(trifluoromethyl)cyclohexyl)acetamido)phenyl)-2-methylpyridine 1-oxide]?
**A.** IC50 [1, 3]: 26 nM; IC50 [2, 4]: 12 nM

**Q.** With `Cc1c(-c2ccc(NC(=O)[C@@H](NC(=O)c3ccnn3C)C3CCCCC3)cc2)c(C(F)(F)F)cc[n+]1[O-]` [Example 67, (S)-3-(4-(2-cyclohexyl-2-(1-methyl-1H-pyrazole-5-carboxamido)acetamido)phenyl)-2-methyl-4-(trifluoromethyl)pyridine 1-oxide] as the molecule, how does the IC50 [1, 3] read?
**A.** 124 nM

**Q.** And the IC50 [2, 4]?
**A.** 15 nM

**Q.** Which results are given for `CCn1nccc1C(=O)NC(C(=O)Nc1ccc(-c2c(Cl)cc[n+]([O-])c2C)c(F)c1)C1CCC(F)(F)CC1` (centres unmarked) [Example 108, 4-chloro-3-(4-(2-(4,4-difluorocyclohexyl)-2-(1-ethyl-1H-pyrazole-5-carboxamido)acetamido)-2-fluorophenyl)-2-methylpyridine 1-oxide]?
**A.** IC50 ([1]; IL17AA FRET/ IL17Rawt IC50, TR-FRET, biotinylated human IL-17A 5 nM, AF647-labeled human IL-17RA 30 nM): 30 nM; IC50 ([2]; IL17AA + TNF IC50 IL-6, NHDF cells, IL-17AA 30 pM plus TNF-α 6 pM): 7 nM

**Q.** How did the IC50 [1, 3] turn out when `Cc1cc[n+]([O-])c(C)c1-c1ccc(NC(=O)[C@@H](NC(=O)c2ccnn2C)C2CCCCC2)cc1` [Example 39, (S)-3-(4-(2-cyclohexyl-2-(1-methyl-1H-pyrazole-5-carboxamido)acetamido)phenyl)-2,4-dimethylpyridine 1-oxide] was run?
**A.** 191 nM

**Q.** And the IC50 [2, 4]?
**A.** 20 nM

**Q.** For `CC(=O)N1CCn2c(ccc2C(=O)N[C@H](C(=O)Nc2ccc(-c3c(Cl)cc[n+]([O-])c3C)c(F)c2)C2CCCCCC2)C1` [Example 134, 3-(4-((S)-2-(2-acetyl-1,2,3,4-tetrahydropyrrolo[1,2-a]pyrazine-6-carboxamido)-2-cycloheptylacetamido)-2-fluorophenyl)-4-chloro-2-methylpyridine 1-oxide], which IC50 [1, 3] is on record?
**A.** 72.8 nM

**Q.** What about the IC50 [2, 4] of the same molecule?
**A.** 7 nM

**Q.** For `Cc1c[n+]([O-])cc(C)c1-c1ccc(NC(=O)[C@@H](NC(=O)c2ccnn2C2CC2)C2CCCCCC2)cc1` [Example 100, (S)-4-(4-(2-cycloheptyl-2-(1-cyclopropyl-1H-pyrazole-5-carboxamido)acetamido)phenyl)-3,5-dimethylpyridine 1-oxide], which IC50 [1, 3] is on record?
**A.** 243 nM

**Q.** And the IC50 [2, 4]?
**A.** 46 nM

**Q.** For `Cc1c(-c2ccc(NC(=O)[C@@H](NC(=O)c3ccnn3C)C3CCCCC3)cc2F)c(Cl)cc[n+]1[O-]` [Example 2, 4-chloro-3-(4-((S)-2-cyclohexyl-2-(1-methyl-1H-pyrazole-5-carboxamido)acetamido)-2-fluorophenyl)-2-methylpyridine 1-oxide], which IC50 [1, 3] is on record?
**A.** 24 nM

**Q.** What about the IC50 [2, 4] of the same molecule?
**A.** 15 nM
